Values of other authors as cited in US20130109746A1, “COMPOSITION COMPRISING ELLAGIC ACID AND A PARTICULAR CATIONIC SURFACTANT, AND COSMETIC USE THEREOF” (L'OREAL S.A., priority 2010, published 2013).

Conditions: in water and in the solvents and oils commonly used in cosmetic compositions

- solubility: very sparingly soluble
Structure (SMILES): O=c1oc2c(O)c(O)cc3c(=O)oc4c(O)c(O)cc1c4c23 [ellagic acid, 2,3,7,8-tetrahydroxy(1)benzopyrano(5,4,3-cde)(1)benzopyran-5,10-dione]
